Source: US7087642B2 (priority 1999, dated 2006)
Where two headings read alike, the source gives them in different places.

What was measured:
human PBMC T cells = assay: cells; assay type: cell-based; settings: read-out: T-cells (IC50)
IMPDH human type II = IMPDH human type II (Homo sapiens, UniProt P12268); assay: biochemical; settings: read-out: Ki
human PBMC B cells = assay: cells; assay type: cell-based; settings: read-out: B-cells (IC50)

| Compound | IC50 (human PBMC T cells; Homo sapiens, 72 h) [nM] | Ki (IMPDH human type II) [nM] | IC50 (human PBMC B cells; Homo sapiens, 72 h) [nM] | IC50 (human PBMC T cells) [nM] | IC50 (human PBMC B cells) [nM] |
| --- | --- | --- | --- | --- | --- |
| COc1cc(NC(=O)Nc2cccc(CNC(=O)OC3COCC3OCC#N)c2)ccc1-c1cnco1 (stereo not drawn) [Compound 75] | 100 to 1000 | < 10 | 100 to 1000 |  |  |
| COc1cc(NC(=O)Nc2cccc(CNC(=O)OC3COCC3OCC#N)c2)ccc1-c1cnco1 (stereo not drawn) [Compound 76] |  | < 10 |  | < 100 | < 100 |
| COc1cc(NC(=O)Nc2cccc(CNC(=O)O[C@@H]3CCN(S(=O)(=O)N(C)C)C3)c2)ccc1-c1cnco1 [Compound 77] | 100 to 1000 | < 10 | 100 to 1000 |  |  |
| COc1cc(NC(=O)Nc2cccc(CNC(=O)O[C@@H]3C=C[C@H](OC(C)=O)C3)c2)ccc1-c1cnco1 [Compound 78] | 100 to 1000 | < 10 | 100 to 1000 |  |  |
| COc1cc(NC(=O)Nc2cccc(CNC(=O)OC(CC#N)C(F)(F)F)c2)ccc1-c1cnco1 (stereo not drawn) [Compound 79] | 100 to 1000 | < 10 | 100 to 1000 |  |  |
| CCN(CC)CC(CO)OC(=O)NCc1cccc(NC(=O)Nc2ccc(-c3cnco3)c(OC)c2)c1 (stereo not drawn) [Compound 80] | 100 to 1000 | < 10 | 100 to 1000 |  |  |
| CC[C@H](CC#N)OC(=O)NCc1cccc(NC(=O)Nc2ccc(-c3cnco3)c(OC)c2)c1 [Compound 81] | 100 to 1000 | 10 to 50 | 100 to 1000 |  |  |
| CC[C@@H](CC#N)OC(=O)NCc1cccc(NC(=O)Nc2ccc(-c3cnco3)c(OC)c2)c1 [Compound 82] | 100 to 1000 | > 50 | 100 to 1000 |  |  |
| CC[C@H](CCC#N)OC(=O)NCc1cccc(NC(=O)Nc2ccc(-c3cnco3)c(OC)c2)c1 [Compound 83] | 100 to 1000 | 10 to 50 | 100 to 1000 |  |  |
| CCC(CN1CC[S+]([O-])CC1)OC(=O)NCc1cccc(NC(=O)Nc2ccc(-c3cnco3)c(OC)c2)c1 (stereo not drawn) [Compound 84] | 100 to 1000 | 10 to 50 | 100 to 1000 |  |  |
| CCC(CN(CC)CC)OC(=O)NCc1cccc(NC(=O)Nc2ccc(-c3cnco3)c(OC)c2)c1 (stereo not drawn) [Compound 87] | < 100 | < 10 | < 100 |  |  |
| COc1cc(NC(=O)Nc2cccc(CNC(=O)O[C@@H](CO)CSC)c2)ccc1-c1cnco1 [Compound 88] | 100 to 1000 | < 10 | 100 to 1000 |  |  |
| COc1cc(NC(=O)Nc2cccc(CNC(=O)OC(CCC#N)C(F)(F)F)c2)ccc1-c1cnco1 (stereo not drawn) [Compound 90] | 100 to 1000 | < 10 | 100 to 1000 |  |  |
| CCC(C[N+]1([O-])CCS(=O)(=O)CC1)OC(=O)NCc1cccc(NC(=O)Nc2ccc(-c3cnco3)c(OC)c2)c1 (stereo not drawn) [Compound 91] | > 1000 | < 10 | > 1000 |  |  |
| CC[C@H](CCN(CC)CC)OC(=O)NCc1cccc(NC(=O)Nc2ccc(-c3cnco3)c(OC)c2)c1 [Compound 92] | 100 to 1000 | < 10 | 100 to 1000 |  |  |
| COc1cc(NC(=O)Nc2cccc(CNC(=O)OCCCOP(=O)(O)O)c2)ccc1-c1cnco1 [Compound 97] | < 100 | 10 to 50 | < 100 |  |  |
| COc1cc(NC(=O)Nc2cccc(CNC(=O)O[C@H](CN3CCCC3)c3ccccc3)c2)ccc1-c1cnco1 [Compound 98] | 100 to 1000 | 10 to 50 | 100 to 1000 |  |  |
| COc1cc(NC(=O)Nc2cccc(CNC(=O)O[C@H](CN3CCCCC3)c3ccccc3)c2)ccc1-c1cnco1 [Compound 99] | 100 to 1000 | 10 to 50 | 100 to 1000 |  |  |
| CCC(OC(=O)NCc1cccc(NC(=O)Nc2ccc(-c3cnco3)c(OC)c2)c1)C(C)(C)C#N (stereo not drawn) [Compound 100] | 100 to 1000 | 10 to 50 | 100 to 1000 |  |  |
| CC[C@@H](CCC#N)OC(=O)NCc1cccc(NC(=O)Nc2ccc(-c3cnco3)c(OC)c2)c1 [Compound 101] | < 100 | < 10 | < 100 |  |  |
| CC[C@@H](CCN(CC)CC)OC(=O)NCc1cccc(NC(=O)Nc2ccc(-c3cnco3)c(OC)c2)c1 [Compound 102] | 100 to 1000 | < 10 | 100 to 1000 |  |  |
| CCC(OC(=O)NCc1cccc(NC(=O)Nc2ccc(-c3cnco3)c(OC)c2)c1)C1(C#N)CC1 (stereo not drawn) [Compound 103] | 100 to 1000 | > 50 | < 100 |  |  |
| COc1cc(NC(=O)Nc2cccc(CNC(=O)OC(CC#N)C3CC3)c2)ccc1-c1cnco1 (stereo not drawn) [Compound 104] | < 100 | 10 to 50 | < 100 |  |  |
| CCCN(CCC(OC(=O)NCc1cccc(NC(=O)Nc2ccc(-c3cnco3)c(OC)c2)c1)c1ccccc1)C(C)C (stereo not drawn) [Compound 107] | 100 to 1000 | > 50 | 100 to 1000 |  |  |
| CCCN(C[C@@H](OC(=O)NCc1cccc(NC(=O)Nc2ccc(-c3cnco3)c(OC)c2)c1)c1ccccc1)C(C)C [Compound 108] | 100 to 1000 | > 50 | < 100 |  |  |
